Source: patent US20020082200A1, “Use of inhibitors of human S-CD23” (SmithKline Beecham p.1.c., priority 1994, published 2002)

Experiments:
Format in all cases: cell-based
soluble CD23 = assay: Inhibition of release of soluble CD23 from CD23-transfected CHO cells (Procedure 1); conditions: CHO cells transfected with alpha form of CD23, 6 hours, ELISA of supernatant; read-out: IC50 (concentration which inhibits the release of soluble CD23 by 50% relative to the control culture)
Protocol: The ability of test compounds to inhibit the release of soluble CD23 was investigated by use of the following procedure.
Adherent Chinese Hamster Ovary cells which had been transfected with the alpha form of CD23 were grown in microtitre plates. Cells were grown to confluence in α-MEM medium with 10% foetal calf serum, 2 mM glutamine containing 800 micro g/ml G418. Medium was removed and the cells washed with sterile phosphate buffered saline. Test compounds were dissolved in dimethyl sulphoxide at a stock concentration of 20 mM, then diluted 1 in 200 with α-MEM containing 800 micro g/ml G418 (no foetal calf serum). […] of the diluted compounds were added to the adherent cells in triplicate wells. Appropriate control cultures were set up in triplicate. The plates were incubated for 6 hours at 37° C., 95% air/5% CO2 in a humidified incubator, then centrifuged at 200× g for 3 minutes. A specific ELISA for CD23, obtained from The Binding Site Limited, Institute of Research and Development, Birmingham England, was used to measure CD23 levels in the culture supernatants.

[1] = test system: Human tonsillar B lymphocytes; assay: Inhibition of formation of human IgE in vitro, tonsillar B lymphocytes with IL4 and anti-CD40 (Procedure 4); conditions: 11 days, ELISA, stimulated control 11.7, TCM 1.9
Protocol: (§1) The ability of test compounds to inhibit the formation of human IgE in vitro was investigated using the following procedure:
Human tonsillar B lymphocytes were suspended in RPMI 1640 medium containing 10% foetal calf serum, 2 mM glutamine, 50 micro M 2-mercaptoethanol and 50 micro g/ml gentamycin (TCM) at a concentration of 1.25×10^6 cells/ml. 800 micro l of the cell suspension were aliquoted into the wells of a 48 well plate. 100 micro l of TCM or IL4 at 100 ng/ml and antibody to CD40 at 10 microg/ml was added in quadriplicate to the appropriate wells, followed by 100 micro l of TCM or 10× the final concentration of compound under investigation. Test compounds are dissolved in DMSO at a stock dilution of 10^−2M diluted 1 in 100 in TCM and then as above. The plates are incubated for 11 days at 37° C. in a 95% air/5% CO2 humidified incubator. At the end of the culture period the supernatents were removed from the wells and centrifuged (200× g for 10 minutes) to remove any non-adherent cells. There was no toxicity as assessed by trypan dye exclusion. The IgE concentration in the supernatants was measured by ELISA.

[2] = test system: Human peripheral blood mononuclear cells; assay: Inhibition of formation of human IgE in vitro, peripheral blood mononuclear cells with IL4 (Procedure 3); conditions: 12 days, ELISA, IL4 alone 72.4, TCM 0.25
Protocol: as §1
Human peripheral blood mononuclear cells were separated by centrifugation over Ficoll-Paque (Pharmacia). The cells were suspended in RPMI 1640 medium containing 10% foetal calf serum, 2 mM glutamine, 50 microM 2-mercaptoethanol and 50 micro g/ml gentamycin (TCM) at a concentration of 1.25×10^6 cells/ml. 800 micro l of the cell suspension were aliquoted into the wells of a 48 well plate. […] Test compounds are dissolved in dimethylsulphoxide (DMSO) at a stock dilution of
10^−2M diluted 1 in 100 in TCM and then as above. The plates are incubated for 12 days at 37° C. in a 95% air/5% CO2 humidified incubator. At the end of the culture period the supernatants were removed with the wells and centrifuged (200× g for 10 minutes) to remove any non-adherent cells. There was no toxicity as assessed by trypan blue dye exclusion. The IgE concentration in the supernatants was measured by ELISA.

Q: What does the source list for CNC(=O)[C@@H](Cc1ccccc1)NC(=O)[C@H](CC(C)C)[C@H](CSc1cccs1)C(=O)N[O-].[Na+] [P1, [4-(N-Hydroxyamino)-2-(R)-isobutyl-3-(S)-(2-thiophenethiomethyl)succinyl]-(S)-phenylalanine-N-methylamide, Sodium Salt]?
A: IC50 (soluble CD23): 0.05 µM; IgE ng/ml (mean +/− sem) ([1]; IL4 (10 ng/ml) and anti CD40 (1 micro g/ml) with compound at 10^−5 M): 2.9 ± 0.2 ng/mL; IgE ng/ml (mean +/− sem) ([1]; IL4 (10 ng/ml) and anti CD40 (1 micro g/ml) with compound at 10^−6 M): 4.3 ± 0.6 ng/mL; IgE ng/ml (mean +/− sem) ([1]; IL4 (10 ng/ml) and anti CD40 (1 micro g/ml) with compound at 10^−7 M): 6.2 ± 0.5 ng/mL; IgE ng/ml (mean +/− sem) ([2]; IL4 (5 ng/ml) with compound at 10^−5 M): 3.2 ± 1.9 ng/mL; IgE ng/ml (mean +/− sem) ([2]; IL4 (5 ng/ml) with compound at 10^−6 M): 21.3 ± 16.5 ng/mL; IgE ng/ml (mean +/− sem) ([2]; IL4 (5 ng/ml) with compound at 10^−7 M): 68.8 ± 21.8 ng/mL

Q: How did the IC50 (soluble CD23) turn out when CNC(=O)[C@@H](Cc1ccc(OC)cc1)NC(=O)C(CC(=O)NO)CC(C)C (stereo partly drawn) [P3, N-[3-(N′-Hydroxycarboxamido)-2-(2-methylpropyl)-propanoyl]-(S)-O-methyl-L-tyrosine-N-methylamide] was run?
A: The IC50 was 3.35 µM.

Q: CNC(=O)[C@H](Cc1c[nH]c2ccccc12)NC(=O)[C@H](CC(C)C)[C@@H](S)CC(=O)OC [P4, Methyl 3-(S)-mercapto-6-methyl-4-(S)-[[[1(S)-[(methylamino)carbonyl]-2-(3-indolyl)ethyl]amino]carbonyl]heptanoate] was tested. Which IC50 (soluble CD23) did it give?
A: The IC50 was 2.2 µM.

Q: Which IC50 (soluble CD23) does the source give for CNC(=O)[C@H](Cc1c[nH]c2ccccc12)NC(=O)[C@H](CC(C)C)[C@@H](S)CC(=O)OC(C)C [P5, Isopropyl 3-(S)-mercapto-6-methyl-4-(S)-[[[1(S)-[(methylamino)carbonyl]-2-(3-indolyl)ethyl]amino]carbonyl]heptanoate] here?
A: Its IC50 is 60 µM.

Q: How did the IC50 (soluble CD23) turn out when CNC(=O)[C@H](Cc1ccc(OC)cc1)NC(=O)[C@H](CC(C)C)[C@@H](S)CC(N)=O [P6, 3-(S)-Mercapto-N^1-[1-(S)-[(methylamino)carbonyl]-2-(4-methoxyphenyl)ethyl]-2-(S)-(2-methylpropyl)pentanediamide] was run?
A: Its IC50 is 60 µM.

Q: CC[C@@H](N[C@@H](CC(C)C)C(=O)N[C@@H](Cc1ccc(OC)cc1)C(=O)NC)P(=O)(O)O [P7, N-[N-((S)-1-Phosphonopropyl)-(S)-leucyl]-O-methyl-(S)-tyrosine N-methylamide] was tested. Which IC50 (soluble CD23) did it give?
A: Its IC50 is 30 µM.
